Data from US20210371459A1, “DIMERIC PEPTIDE INHIBITORS OF APOPTOSIS PROTEINS” (Hepagene Therapeutics (HK) Limited, priority 2017, published 2021).

Assays:
Conditions in all cases: FP, probe AbuRPFK-5FAM, 60 min at 25° C.
XIAP-BIR3 = biological target: T1, XIAP-BIR3 (Homo sapiens, UniProt P98170); assay: XIAP-BIR3 fluorescence polarization binding assay
T1 construct: purchased Reaction Biology APT-11-374
Source text: (§1) IAPs are one main cause of cancer development and may result from overexpression of anti-apoptotic proteins. This protocol establishes three binding assays for XIAP Bir3 domain, cIAP1 and cIAP2 using FP (Fluorescence polarization) technology. The fluorescence probe used is a synthetic peptide conjugated to 5-carboxyfluorescein (AbuRPFK-5FAM). The fluorescence polarization value (mP) was detected by Envision, which was used to reflect the binding degree of protein and fluorescent marker. Reagents and equipment used in the assay are listed below, followed by the protocol.
(§2) • a) Prepare 100 times of the final cpd concentration in appropriate tube and transfer 5 uL compound (“cpd”) to 45 μL 1× reaction buffer with 10% DMSO. • b) The final reference cpd concentration is 10000, 3333.3, 1111.1, 370.4, 123.4, 41.2, 13.7, 4.57, 1.52, 0.51, 0.17 and 0 nM. So the 100 times of the concentration is 1000, 333.3, 111.1, 37.04, 12.34, 4.12, […], 0.15, 0.05, 0.017 and 0 μM. The final test cpds concentration is 3333.3, 1111.1, 370.4, 123.4, 41.2, 13.7, 4.57, 1.52, 0.51, 0.17, 0.057 and 0 nM. So the 100 times of the concentration is 333.3, 111.1, 37.04, 12.34, 4.12, […], 0.15, 0.05, 0.017, 0.0057 and 0 μM • c) Add 8 μL/well each dose enzyme to 384 well microplate (ProxiPlate-384 F Plus, 6008260) using multichannel pipette, prepared in step 2.1.1.2 • d) Centrifuge at 1000 rpm. • e) Add 2 μL/well cpd to 384 well microplate (ProxiPlate-384 F Plus, 6008260) using multichannel pipette, prepared in step a). • f) Centrifuge at 1000 rpm. RT, 15 min. • g) Start the assay by adding 10 uL/well substrate (prepared in step 2.1.1.3) to the same 384 well microplate using multichannel pipette • h) Centrifuge at 1000 rpm. • i) Cover the assay plate and incubate for 60 min at 25° C. • j) Read on Envision 2104 for mP and plot the IC50s with mP values. • k) Data analysis: IC50s were determined based on a non-linear regression analysis of data collected.

cIAP1-BIR3 = biological target: T2, cIAP1-BIR3 (Homo sapiens, UniProt Q13490); assay: cIAP1-BIR3 fluorescence polarization binding assay
T2 construct: cIAP1-BIR3; Reaction Biology; APT-11-370; purchased Reaction Biology APT-11-370
T2 sequence (Q13490 253-363 limits assumed): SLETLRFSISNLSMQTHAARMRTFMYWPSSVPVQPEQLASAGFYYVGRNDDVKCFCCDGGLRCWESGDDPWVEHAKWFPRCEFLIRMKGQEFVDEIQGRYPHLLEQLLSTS
Source text: as §1, §2

cIAP2-BIR3 = biological target: T3, cIAP2-BIR3 (Homo sapiens, UniProt Q13489); assay: cIAP2-BIR3 fluorescence polarization binding assay
T3 construct: cIAP2-BIR3; Reaction Biology; APT-11-372; purchased Reaction Biology APT-11-372
T3 sequence (Q13489 238-349 limits assumed): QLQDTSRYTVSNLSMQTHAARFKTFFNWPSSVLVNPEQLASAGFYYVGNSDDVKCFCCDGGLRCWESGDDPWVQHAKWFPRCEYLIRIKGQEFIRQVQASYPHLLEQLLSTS
Source text: as §1, §2

T1 sequence (P98170 241-356 limits assumed): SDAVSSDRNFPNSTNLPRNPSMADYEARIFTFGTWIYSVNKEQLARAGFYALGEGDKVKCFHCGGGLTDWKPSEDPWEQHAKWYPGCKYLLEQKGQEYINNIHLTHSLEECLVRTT

Row | IC50 (XIAP-BIR3) | IC50 (cIAP1-BIR3) | IC50 (cIAP2-BIR3) | SMILES
1 | 0.1 to 10 nM | 0.1 to 10 nM | 0.1 to 10 nM | CC[C@H](C)[C@H](NC(=O)[C@H](C)NC)C(=O)N1C[C@@H](OCCCN2CCN(CCCO[C@H]3C[C@@H](C(=O)N[C@@H]4CCCc5ccccc54)N(C(=O)[C@@H](NC(=O)[C@H](C)NC)[C@@H](C)CC)C3)CC2)C[C@H]1C(=O)N[C@@H]1CCCc2ccccc21 [Compound II-G, (2S,4S)-1-[(2S)-3-Methyl-2-[(2S)-2-(methylamino)propanamido]pentanoyl]-4-{3-[4-(3-{[(3S,5S)-1-[(2S)-3-methyl-2-[(2S)-2-(methylamino)propanamido]pentanoyl]-5-{[(1R)-1,2,3,4-tetrahydronaphthalen-1-yl]carbamoyl}pyrrolidin-3-yl]oxy}propyl)piperazin-1-yl]propoxy}-N-[(1R)-1,2,3,4-tetrahydronaphthalen-1-yl]pyrrolidine-2-carboxamide]
2 | 10 to 100 nM | 0.1 to 10 nM | 10 to 100 nM | CN[C@@H](C)C(=O)N[C@H](C(=O)N1C[C@@H](OCCCN2CCN(CCCO[C@H]3C[C@@H](C(=O)N[C@@H]4CCCc5ccccc54)N(C(=O)[C@@H](NC(=O)[C@H](C)NC)C4CCC4)C3)CC2)C[C@H]1C(=O)N[C@@H]1CCCc2ccccc21)C1CCC1 [Compound II-H, (2S,4S)-1-[(2S)-2-Cyclobutyl-2-[(2S)-2-(methylamino)propanamido]acetyl]-4-[3-[4-(3-[[(3S,5S)-1-[(2S)-2-cyclobutyl-2-[(2S)-2-(methylamino)propanamido]acetyl]-5-[[(1R)-1,2,3,4-tetrahydronaphthalen-1-yl]carbamoyl]pyrrolidin-3-yl]oxy]propyl)piperazin-1-yl]propoxy]-N-[(1R)-1,2,3,4-tetrahydronaphthalen-1-yl]pyrrolidine-2-carboxamide]
3 | 10 to 100 nM | 0.1 to 10 nM | 10 to 100 nM | CN[C@@H](C)C(=O)N[C@H](C(=O)N1C[C@@H](OCCC(=O)N2CCN(C(=O)CCO[C@H]3C[C@@H](C(=O)N[C@@H]4CCCc5ccccc54)N(C(=O)[C@@H](NC(=O)[C@H](C)NC)C4CCCCC4)C3)CC2)C[C@H]1C(=O)N[C@@H]1CCCc2ccccc21)C1CCCCC1 [Compound IV, (2S,4S)-1-[(2S)-2-Cyclohexyl-2-[(2S)-2-(methylamino)propanamido]acetyl]-4-{3-[4-(3-{[(3S,5S)-1-[(2S)-2-cyclohexyl-2-[(2S)-2-(methylamino)propanamido]acetyl]-5-{[(1R)-1,2,3,4-tetrahydronaphthalen-1-yl]carbamoyl}pyrrolidin-3-yl]oxy}propanoyl)piperazin-1-yl]-3-oxopropoxy}-N-[(1R)-1,2,3,4-tetrahydronaphthalen-1-yl]pyrrolidine-2-carboxamide]
4 | 100 to 1000 nM | 0.1 to 10 nM | 10 to 100 nM | CN[C@@H](C)C(=O)N[C@@H](C)C(=O)N1C[C@@H](OCCC(=O)N2CCN(C(=O)CCO[C@H]3C[C@@H](C(=O)N[C@@H]4CCCc5ccccc54)N(C(=O)[C@H](C)NC(=O)[C@H](C)NC)C3)CC2)C[C@H]1C(=O)N[C@@H]1CCCc2ccccc21 [Compound IV-A, (2S,4S)-1-[(2S)-2-[(2S)-2-(Methylamino)propanamido]propanoyl]-4-[3-[4-(3-[[(3S,5S)-1-[(2S)-2-[(2S)-2-(methylamino)propanamido]propanoyl]-5-[[(1R)-1,2,3,4-tetrahydronaphthalen-1-yl]carbamoyl]pyrrolidin-3-yl]oxy]propanoyl)piperazin-1-yl]-3-oxopropoxy]-N-[(1R)-1,2,3,4-tetrahydronaphthalen-1-yl]pyrrolidine-2-carboxamide]
5 | 100 to 1000 nM | 0.1 to 10 nM | 10 to 100 nM | CC[C@H](NC(=O)[C@H](C)NC)C(=O)N1C[C@@H](OCCC(=O)N2CCN(C(=O)CCO[C@H]3C[C@@H](C(=O)N[C@@H]4CCCc5ccccc54)N(C(=O)[C@H](CC)NC(=O)[C@H](C)NC)C3)CC2)C[C@H]1C(=O)N[C@@H]1CCCc2ccccc21 [Compound IV-B, (2S, 4S)-1-[(2S)-2-[(2S)-2-(Methylamino)propanamido]butanoyl]-4-[3-[4-(3-[[(3S,5S)-1-[(2S)-2-[(2S)-2-(methylamino)propanamido]butanoyl]-5-[[(1R)-1,2,3,4-tetrahydronaphthalen-1-yl]carbamoyl]pyrrolidin-3-yl]oxy]propanoyl)piperazin-1-yl]-3-oxopropoxy]-N-[(1R)-1,2,3,4-tetrahydronaphthalen-1-yl]pyrrolidine-2-carboxamide]
6 | 100 to 1000 nM | 0.1 to 10 nM | 0.1 to 10 nM | CN[C@@H](C)C(=O)N[C@H](C(=O)N1C[C@@H](OCCC(=O)N2CCN(C(=O)CCO[C@H]3C[C@@H](C(=O)N[C@@H]4CCCc5ccccc54)N(C(=O)[C@@H](NC(=O)[C@H](C)NC)C4CC4)C3)CC2)C[C@H]1C(=O)N[C@@H]1CCCc2ccccc21)C1CC1 [Compound IV-C, (2S,4S)-1-[(2S)-2-Cyclopropyl-2-[(2S)-2-(methylamino)propanamido]acetyl]-4-{3-[4-(3-{[(3S,5S)-1-[(2S)-2-cyclopropyl-2-[(2S)-2-(methylamino)propanamido]acetyl]-5-{[(1R)-1,2,3,4-tetrahydronaphthalen-1-yl]carbamoyl}pyrrolidin-3-yl]oxy}propanoyl)piperazin-1-yl]-3-oxopropoxy}-N-[(1R)-1,2,3,4-tetrahydronaphthalen-1-yl]pyrrolidine-2-carboxamide]
7 | 10 to 100 nM | 0.1 to 10 nM | 10 to 100 nM | CN[C@@H](C)C(=O)N[C@H](C(=O)N1C[C@@H](OCCC(=O)N2CCN(C(=O)CCO[C@H]3C[C@@H](C(=O)N[C@@H]4CCCc5ccccc54)N(C(=O)[C@@H](NC(=O)[C@H](C)NC)C(C)C)C3)CC2)C[C@H]1C(=O)N[C@@H]1CCCc2ccccc21)C(C)C [Compound IV-D, (2S, 4S)-1-[(2S)-3-Methyl-2-[(2S)-2-(methylamino)propanamido]butanoyl]-4-[3-[4-(3-[[(3S,5S)-1-[(2S)-3-methyl-2-[(2S)-2-(methylamino)propanamido]butanoyl]-5-[[(1R)-1,2,3,4-tetrahydronaphthalen-1-yl]carbamoyl]pyrrolidin-3-yl]oxy]propanoyl)piperazin-1-yl]-3-oxopropoxy]-N-[(1R)-1,2,3,4-tetrahydronaphthalen-1-yl]pyrrolidine-2-carboxamide]
8 | 10 to 100 nM | 0.1 to 10 nM | 10 to 100 nM | CN[C@@H](C)C(=O)N[C@H](C(=O)N1C[C@@H](OCCC(=O)N2CCN(C(=O)CCO[C@H]3C[C@@H](C(=O)N[C@@H]4CCCc5ccccc54)N(C(=O)[C@@H](NC(=O)[C@H](C)NC)C4CCC4)C3)CC2)C[C@H]1C(=O)N[C@@H]1CCCc2ccccc21)C1CCC1 [Compound IV-G, (2S,4S)-1-[(2S)-2-Cyclobutyl-2-[(2S)-2-(methylamino)propanamido]acetyl]-4-[3-[4-(3-[[(3S,5S)-1-[(2S)-2-cyclobutyl-2-[(2S)-2-(methylamino)propanamido]acetyl]-5-[[(1R)-1,2,3,4-tetrahydronaphthalen-1-yl]carbamoyl]pyrrolidin-3-yl]oxy]propanoyl)piperazin-1-yl]-3-oxopropoxy]-N-[(1R)-1,2,3,4-tetrahydronaphthalen-1-yl]pyrrolidine-2-carboxamide]
9 | 10 to 100 nM | 0.1 to 10 nM | 0.1 to 10 nM | CN[C@@H](C)C(=O)N[C@H](C(=O)N1C[C@@H](OCCOCCO[C@H]2C[C@@H](C(=O)N[C@@H]3CCCc4ccccc43)N(C(=O)[C@@H](NC(=O)[C@H](C)NC)C3CCCCC3)C2)C[C@H]1C(=O)N[C@@H]1CCCc2ccccc21)C1CCCCC1 [Compound V, (2S,4S)-1-[(2S)-2-Cyclohexyl-2-[(2S)-2-(methylamino)propanamido]acetyl]-4-[2-(2-[[(3S,5S)-1-[(2S)-2-cyclohexyl-2-[(2S)-2-(methylamino)propanamido]acetyl]-5-[[(1R)-1,2,3,4-tetrahydronaphthalen-1-yl]carbamoyl]pyrrolidin-3-yl]oxy]ethoxy)ethoxy]-N-[(1R)-1,2,3,4-tetrahydronaphthalen-1-yl] pyrrolidine-2-carboxamide]
